In ChEMBL document CHEMBL1146070, “Investigating the role of stereochemistry in the activity of anticancer acylfulvenes: synthesis, reductase-mediated bioactivation, and cellular toxicity” (J Med Chem, 2006):

Test system: HEK293
Test: Cytotoxicity against HEK293 cells by MTT assay
Assay type: functional, cell-based
Settings: Homo sapiens

| Compound | IC50 |
| --- | --- |
| CC1=CC2=C(C)C3(CC3)[C@@](C)(O)C(=O)C2=C1 [ACYLFULVENE] | 1400 nM |
| CC1=C(CO)C2=C(C)C3(CC3)[C@@](C)(O)C(=O)C2=C1 [IROFULVEN] | 1200 nM |
